Relative viability data for 1 cell line are collected here from the supplement of paper PMC10307832.

Assay in all cases: relative viability (nuclei count vs DMSO), 5 days (fraction); higher = more cells survive
Compound in the experiment “Dabrafenib + OSI-027”: CC(C)(C)c1nc(-c2cccc(NS(=O)(=O)c3c(F)cccc3F)c2F)c(-c2ccnc(N)n2)s1 [Dabrafenib] + COc1cccc2cc(-c3nc([C@H]4CC[C@H](C(=O)O)CC4)n4ncnc(N)c34)[nH]c12 [OSI-027] (partner 0.5 µM)
In outline: (§1)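 Nuclei were stained with Hoechst during a one-step fixation (final 0.05% Triton X-100, 1% formaldehyde, 1 ug/ml Hoechst) carried out 5 days after dosing, then counted on 4× images. The cells, lung cancer lines in 1536-well plates, had been dosed by pin tool the day after seeding with one drug alone or a fixed anchor-drug dose plus five library-drug doses (not always all listed) in √10 steps. Relative viability is the nuclei count in treated wells divided by that in vehicle wells, and each value is the median of duplicate plates.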

Compound in the experiment “VX-702 + Dasatinib”: NC(=O)c1ccc(N(C(N)=O)c2c(F)cccc2F)nc1-c1ccc(F)cc1F [VX-702] + Cc1nc(Nc2ncc(C(=O)Nc3c(C)cccc3Cl)s2)cc(N2CCN(CCO)CC2)n1 [Dasatinib] (partner 0.075 µM)
In outline: as §1

Compound in the experiment “VX-702 + Phenformin”: NC(=O)c1ccc(N(C(N)=O)c2c(F)cccc2F)nc1-c1ccc(F)cc1F [VX-702] + N=C(N)NC(=N)NCCc1ccccc1 [Phenformin] (partner 250 µM)
In a few lines: as §1

Compound in the experiment “VX-702 + Trametinib”: NC(=O)c1ccc(N(C(N)=O)c2c(F)cccc2F)nc1-c1ccc(F)cc1F [VX-702] + CC(=O)Nc1cccc(-n2c(=O)n(C3CC3)c(=O)c3c(Nc4ccc(I)cc4F)n(C)c(=O)c(C)c32)c1 [Trametinib] (partner 0.02 µM)
In outline: as §1

Compound in the experiment “VX-702 + Pemetrexed”: NC(=O)c1ccc(N(C(N)=O)c2c(F)cccc2F)nc1-c1ccc(F)cc1F [VX-702] + Nc1nc2[nH]cc(CCc3ccc(C(=O)N[C@@H](CCC(=O)O)C(=O)O)cc3)c2c(=O)[nH]1 [Pemetrexed] (partner 0.2 µM)
In outline:
as §1

Take SW 900: the relative viability with Dabrafenib + OSI-027 (first compound 0.009487 µM) worked out at 0.619; with Dabrafenib + OSI-027 (first compound 0.03 µM), 0.466; with Dabrafenib + OSI-027 (first compound 0.3 µM), 0.679; with VX-702 + Dasatinib (first compound 0.02 µM), 0.541; in the experiment with VX-702 + Dasatinib (first compound 0.2 µM), 0.664; in the experiment with VX-702 + Dasatinib (first compound 0.6325 µM), 0.56. Further, the relative viability in the experiment with VX-702 + Dasatinib (first compound 2 µM) stood at 0.818; with VX-702 + Phenformin (first compound 0.02 µM) it was 0.634; with VX-702 + Phenformin (first compound 0.2 µM) it was 0.585; in the experiment with VX-702 + Phenformin (first compound 0.6325 µM), 0.869; with VX-702 + Phenformin (first compound 2 µM) it was 0.546; in the experiment with VX-702 + Trametinib (first compound 0.02 µM) it was 0.775. Besides, the relative viability was determined as 0.871 with VX-702 + Trametinib (first compound 0.2 µM); 0.856 in the experiment with VX-702 + Trametinib (first compound 0.6325 µM); 0.795 with VX-702 + Trametinib (first compound 2 µM); 0.51 with VX-702 + Pemetrexed (first compound 0.02 µM); 0.488 with VX-702 + Pemetrexed (first compound 0.2 µM); 0.474 with VX-702 + Pemetrexed (first compound 0.6325 µM). For the same cell line, in the experiment with VX-702 + Pemetrexed (first compound 2 µM), the relative viability turned out to be 0.464.
